Measurements published in patent US11021479B2, “Pyridoquinazoline derivatives useful as protein kinase inhibitors” (ONCOSTELLAE, S.L., priority 2017, dated 2021).

Key:
Assay type in all cases: biochemical
Human ARK5/NUAK1 = target: T1, Human ARK5/NUAK1 (Homo sapiens, UniProt O60285); assay: ARK5 activity inhibition test (Reaction Biology kit, 33P-ATP filter assay); conditions: ATP 10 μM, peptide substrate 20 μM, 120 min; read-out: ARK5 enzymatic activity (IC50) score
T1 construct: purchased Reaction Biology ARK5/NUAK1
T1 sequence (O60285 1-661): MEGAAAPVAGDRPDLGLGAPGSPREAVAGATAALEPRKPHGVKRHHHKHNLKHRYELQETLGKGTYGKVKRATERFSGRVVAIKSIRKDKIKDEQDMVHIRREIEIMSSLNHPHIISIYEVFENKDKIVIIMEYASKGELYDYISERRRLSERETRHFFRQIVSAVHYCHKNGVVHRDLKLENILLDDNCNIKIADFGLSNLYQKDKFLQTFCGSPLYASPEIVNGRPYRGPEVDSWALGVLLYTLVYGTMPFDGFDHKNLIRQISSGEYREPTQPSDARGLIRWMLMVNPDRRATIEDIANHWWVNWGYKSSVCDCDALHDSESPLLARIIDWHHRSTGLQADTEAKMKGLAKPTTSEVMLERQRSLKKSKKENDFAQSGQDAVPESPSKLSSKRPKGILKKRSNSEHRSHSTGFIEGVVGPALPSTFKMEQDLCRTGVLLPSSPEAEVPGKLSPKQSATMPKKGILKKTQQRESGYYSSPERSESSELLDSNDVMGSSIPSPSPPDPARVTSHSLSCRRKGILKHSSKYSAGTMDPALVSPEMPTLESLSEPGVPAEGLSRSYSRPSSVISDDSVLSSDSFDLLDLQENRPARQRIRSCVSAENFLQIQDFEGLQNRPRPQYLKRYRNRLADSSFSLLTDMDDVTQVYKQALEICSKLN
Experimental: Activity test was carried out using the kit from Reaction Biology (CAT #: ARK5/NUAK1). The test uses enzyme Human ARK5/NUAK1 and the substrate is the peptide […] (SEQ ID NO: 1), 20 μM and ATP 10 μM. Other reagents are the following: Base Reaction buffer; 20 mM Hepes (pH 7.5), 10 mM MgCl2, 1 mM EGTA, 0.02% Brij35, 0.02 mg/ml BSA, 0.1 mM Na3VO4, 2 mM DTT, 1% DMSO.
The reaction was carried out following the instructions of manufacturer. Briefly, kinase/substrate pairs were prepared in reaction buffer. Compounds were delivered into the reaction, followed 20 minutes later by addition of a mixture of ATP (Sigma, St. Louis Mo.) and ^33P ATP (Perkin Elmer, Waltham Mass.) to a final concentration of 10 μM. Reactions were carried out at room temperature for 120 min, followed by spotting of the reactions onto P81 ion exchange filter paper (Whatman Inc., Piscataway, N.J.). Unbound phosphate was removed by extensive washing of filters in 0.75% phosphoric acid. […] IC50 values and curve fits were obtained using Prism (GraphPad Software).

JAK1 = target: T2, JAK1 (Homo sapiens, UniProt P23458); assay: Functional assay of protein Janus kinases (Caliper mobility shift), JAK1; conditions: ATP 100 μM, incubation 150 min; read-out: JAK1 enzymatic activity (IC50) score
T2 construct: purchased Carna Biosciences 08-144
T2 sequence (P23458 850-1154 limits assumed): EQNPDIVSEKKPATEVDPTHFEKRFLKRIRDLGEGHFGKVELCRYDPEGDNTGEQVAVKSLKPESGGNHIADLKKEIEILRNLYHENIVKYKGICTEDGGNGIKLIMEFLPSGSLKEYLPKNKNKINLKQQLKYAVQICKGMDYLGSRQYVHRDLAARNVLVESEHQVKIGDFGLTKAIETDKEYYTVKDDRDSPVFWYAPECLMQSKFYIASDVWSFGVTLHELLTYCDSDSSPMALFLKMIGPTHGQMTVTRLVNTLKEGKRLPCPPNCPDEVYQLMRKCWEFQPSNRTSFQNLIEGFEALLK
Experimental: (§1) The functional assays of protein Janus kinases were carried out in 384-well plates using a final volume of 30 μl. […] The reaction was reads in a “Caliper EzReader LabChip 3000” (Caliper, Hopkinton, Mass.) reader, based on electrophoretic mobility of the fluorescent substrate and the phosphorylated product.
(§2) The inhibition percentages were calculated by comparison between control reactions, for 100% of inhibition and reactions with only DMSO for 0% of inhibition.

JAK2 = target: T3, JAK2 (Homo sapiens, UniProt O60674); assay: Functional assay of protein Janus kinases (Caliper mobility shift), JAK2; conditions: ATP 300 μM, incubation 30 min; read-out: JAK2 enzymatic activity (IC50) score
T3 construct: purchased Carna Biosciences 08-045
T3 sequence (O60674 826-1132 limits assumed): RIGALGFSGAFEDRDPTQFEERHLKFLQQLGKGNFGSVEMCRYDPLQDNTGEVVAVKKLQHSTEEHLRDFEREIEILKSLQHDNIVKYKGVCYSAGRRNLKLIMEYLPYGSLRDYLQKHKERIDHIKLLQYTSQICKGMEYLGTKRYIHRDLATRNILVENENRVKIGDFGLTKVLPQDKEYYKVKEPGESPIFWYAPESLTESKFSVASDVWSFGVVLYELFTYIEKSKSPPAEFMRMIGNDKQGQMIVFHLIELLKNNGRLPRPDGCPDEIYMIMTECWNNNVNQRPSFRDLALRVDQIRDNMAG
Experimental: as §1, §2

JAK3 = target: T4, JAK3 (Homo sapiens, UniProt P52333); assay: Functional assay of protein Janus kinases (Caliper mobility shift), JAK3; conditions: ATP 8 μM, incubation 30 min; read-out: JAK3 enzymatic activity (IC50) score
T4 construct: purchased Carna Biosciences 08-046
T4 sequence (P52333 795-1124 limits assumed): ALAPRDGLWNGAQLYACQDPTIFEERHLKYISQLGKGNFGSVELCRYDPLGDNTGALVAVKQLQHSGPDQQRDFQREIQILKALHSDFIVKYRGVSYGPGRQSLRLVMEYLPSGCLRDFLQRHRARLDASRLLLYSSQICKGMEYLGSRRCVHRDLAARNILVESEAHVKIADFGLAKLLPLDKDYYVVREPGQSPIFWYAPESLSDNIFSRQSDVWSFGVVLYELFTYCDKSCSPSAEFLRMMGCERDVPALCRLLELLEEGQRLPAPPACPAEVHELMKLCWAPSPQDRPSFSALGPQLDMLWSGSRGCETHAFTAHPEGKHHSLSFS
Experimental: as §1, §2

TYK2 = target: T5, TYK2 (Homo sapiens, UniProt P29597); assay: Functional assay of protein Janus kinases (Caliper mobility shift), TYK2; conditions: ATP 20 μM, incubation 45 min; read-out: TYK2 enzymatic activity (IC50) score
T5 construct: purchased Carna Biosciences 08-147
T5 sequence (P29597 871-1187 limits assumed): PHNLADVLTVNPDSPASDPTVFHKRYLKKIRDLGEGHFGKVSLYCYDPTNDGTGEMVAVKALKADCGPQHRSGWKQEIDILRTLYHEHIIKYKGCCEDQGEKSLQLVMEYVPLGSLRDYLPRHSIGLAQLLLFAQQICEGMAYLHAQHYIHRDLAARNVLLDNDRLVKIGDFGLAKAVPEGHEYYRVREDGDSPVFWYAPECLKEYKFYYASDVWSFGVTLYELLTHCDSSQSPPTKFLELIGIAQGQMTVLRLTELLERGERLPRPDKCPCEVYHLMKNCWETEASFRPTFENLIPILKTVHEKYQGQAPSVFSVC
Experimental: as §1, §2

Row | SMILES | IC50 (Human ARK5/NUAK1) [µM] | IC50 (JAK1) [µM] | IC50 (JAK2) [µM] | IC50 (JAK3) [µM] | IC50 (TYK2) [µM]
1 | O=C(NC1CCCC1)c1cccn2c(=O)c3cc(C4CC4)ccc3nc12 [Example 2, N-cyclopentyl-2-cyclopropyl-11-oxo-11H-pyrido[2,1-b]quinazoline-6-carboxamide] | < 0.1 | > 1 | > 1 | < 0.1 | < 0.1
2 | COc1ccc2nc3c(C(=O)NC4CCCCC4)cccn3c(=O)c2c1 [Example 20, N-cyclohexyl-2-methoxy-11-oxo-11H-pyrido[2,1-b]quinazoline-6-carboxamide] | < 0.1 | – | – | < 0.1 | < 0.1
3 | O=C(NC1CCCCC1)c1cccn2c(=O)c3cc(-c4ccc(F)cc4)ccc3nc12 [Example 29, N-cyclohexyl-2-(4-fluorophenyl)-11-oxo-11H-pyrido[2,1-b]quinazoline-6-carboxamide] | < 0.1 | > 1 | > 1 | 0.1 to 1 | > 1
4 | O=C(NC1CCCCC1)c1cccn2c(=O)c3cc(-c4ccncc4)ccc3nc12 [Example 33, N-cyclohexyl-11-oxo-2-(pyridin-4-yl)-11H-pyrido[2,1-b]quinazoline-6-carboxamide] | < 0.1 | > 1 | > 1 | < 0.1 | < 0.1

Next, values leading:

Row | IC50 (Human ARK5/NUAK1) [µM] | IC50 (JAK1) [µM] | IC50 (JAK2) [µM] | IC50 (JAK3) [µM] | IC50 (TYK2) [µM] | SMILES
5 | < 0.1 | > 1 | > 1 | < 0.1 | < 0.1 | O=C(NC1CCCCC1)c1cccn2c(=O)c3cc(C4CC4)ccc3nc12 [Example 1, N-cyclohexyl-2-cyclopropyl-11-oxo-11H-pyrido[2,1-b]quinazoline-6-carboxamide]
6 | < 0.1 | > 1 | > 1 | < 0.1 | < 0.1 | CN1CCN(c2ccc3nc4c(C(=O)NC5CCCCC5)cccn4c(=O)c3c2)CC1 [Example 36, N-cyclohexyl-2-(4-methylpiperazin-1-yl)-11-oxo-11H-pyrido[2,1-b]quinazoline-6-carboxamide]
7 | < 0.1 | > 1 | > 1 | < 0.1 | < 0.1 | O=C(NC1CCCCC1)c1cccn2c(=O)c3cc(N4CCOCC4)ccc3nc12 [Example 38, N-cyclohexyl-2-morpholino-11-oxo-11H-pyrido[2,1-b]quinazoline-6-carboxamide]
